Laboratory results from paper PMC9269301, “Phytochemical Analysis, Antioxidant, Antimicrobial, and Cytotoxic Activity of Different Extracts of Xanthoparmelia stenophylla Lichen from Stara Planina, Serbia” (Plants, 2022).
In brackets after ≈: the same amount, converted by molar mass. Where two headings read alike, the source gives them in different places.

Key:
[1] = tested on: S. enterica (isolate); assay: microbe, parasite or virus in culture; format: cell-based, Salmonella enterica
Experimental: (§1) The tested methanol, acetone, and n-hexane extracts, as well as the component (usnic acid) of X. stenophylla, were dissolved in 10% dimethyl sulfoxide (DMSO) and then diluted into the nutrient liquid medium. DMSO was obtained from Acros Organics (Fair Lawn, NJ, USA). Resazurin was obtained from Alfa Aesar GmbH & Co. (KG, Karlsruhe, Germany).
(§2) The antimicrobial activity of the extracts and components was tested against 19 microorganisms. The experiment involved 15 strains of bacteria (i.e., 6 standard strains: Staphylococcus aureus ATCC 6538, Bacillus subtilis ATCC 6633, Proteus mirabilis ATCC 12453, Pseudomonas aeruginosa ATCC 27853, Klebsiella pneumoniae ATCC 70063, and Escherichia coli ATCC 25922; 9 isolates: Staphylococcus aureus, Escherichia coli, Salmonella enterica, Salmonella Typhimurium, Proteus mirabilis, Klebsiella pneumoniae, Pseudomonas aeruginosa, Bacillus subtilis, and Bacillus cereus). In addition, four fungal strains (i.e., two standard strains: Candida albicans ATCC 10231 and Aspergillus niger ATCC 16888; two isolates: Saccharomyces cerevisiae and Candida albicans) were tested. All isolates were a generous gift from the Institute of Public Health, Kragujevac. The other microorganisms were provided from the collection held by the Microbiology Laboratory Faculty of Science, University of Kragujevac.
(§3) The bacterial suspensions were prepared by the direct colony method. The turbidity of the initial suspension was adjusted using a densitometer (DEN-1, BioSan, Riga, Latvia). When adjusted to the turbidity of the 0.5 McFarland’s standard (Andrews, 2005) the bacteria suspension contained approximately 10^8 colony-forming units (CFU)/mL, and the suspension of yeast contained 10^6 CFU/mL; 1:100 dilutions of the initial suspension were additionally prepared in sterile 0.85% saline. The suspensions of fungal spores were prepared by gentle stripping of spores from slopes with growing mycelia. The resulting suspensions were 1:1000 diluted in sterile 0.85% saline.
(§4) Antimicrobial activity was tested by determining the minimum inhibitory concentrations (MICs) and minimum microbicidal concentrations (MBCs) using the microdilution plate method with resazurin [56]. The 96-well plates were prepared by dispensing 100 μL of Mueller–Hinton broth for bacteria and Sabouard broth for fungi into each well. A 10 μL aliquot from the stock solution of the tested extract or component was added to the first row of the plate. Then, two-fold serial dilutions were performed using a multichannel pipette. The obtained concentration range was from 10 to 0.08 mg/mL. The method is described in detail in [76].
(§5) Each test included growth control and sterility control.
(§6) Minimum microbicidal concentrations were determined by plating 10 μL of samples from wells where no indicator color change or no mycelia growth was recorded on a nutrient agar medium. At the end of the incubation period, the lowest concentration with no growth (no colony) was defined as the minimum microbicidal concentration.

[2] = tested on: E. coli ATCC 25922; assay: Microdilution with resazurin, antibacterial; format: cell-based, Escherichia coli
Experimental: as §1, §2, §3, §4, §5, §6

[3] = tested on: E. coli (isolate); assay: Microdilution with resazurin, antibacterial; format: cell-based, Escherichia coli
Experimental: as §1, §2, §3, §4, §5, §6

[4] = tested on: P. aeruginosa biofilm; assay: Antibiofilm activity (biofilm formation, crystal violet); format: cell-based, Pseudomonas aeruginosa; settings: P. aeruginosa, 37 °C, 48 h
Experimental: (§7) The ability of S. aureus ATCC 6538 and P. aeruginosa to form biofilms was assayed as described by O’Toole et al. with some modifications. Briefly, the tissue culture of 96-well microtiter plates (Sarstedt, Germany) were prepared by dispensing 100 µL of nutrient broth (i.e., Mueller–Hinton broth) into each well. Ten microliters of spore suspension (10^8 colony-forming units (CFU)/mL) was added into each row. […] Biofilms formed by adherent cells in 96-well microtiter plates were stained with crystal violet (0.1% w/v; Fluka AG, Buchs, Switzerland) and incubated at room temperature for 20 min. Excess stain was rinsed off by thorough washing with deionized water and then with […] of 96% ethanol. Optical densities (ODs) of stained adherent bacteria were determined with an enzyme-linked immunosorbent assay (ELISA) plate reader (RT-2100C, Rayto, Shenzhen, China) at a 630 nm wavelength. Only broth served as a control to check sterility and nonspecific binding of media. To compensate for background absorbance, OD readings from sterile medium, fixative, and dye were averaged and subtracted from all test values. All tests were performed in duplicate. The tissue culture of 96-well microtiter plates (Sarstedt, Nümbrecht, Germany) were prepared by dispensing 100 µL of nutrient broth (i.e., Mueller–Hinton broth) into each well. From the stock solution of the tested extracts or components (concentration: 20 mg/mL), 100 µL was added to the first row of the microtiter plate. Two-fold serial dilutions were then made using a multichannel pipette, following which 10 µL of fresh bacterial suspension was added to each well. The inoculated microtiter plates were incubated at 37 °C for 48 h. After incubation, the content of each well was gently removed by tapping the microtiter plates. […] Biofilms formed by adherent cells in 96-well microtiter plates were stained with crystal violet (0.1% w/v; Fluka AG, Switzerland) and incubated at room temperature for 20 min. Excess stain was rinsed off by thorough washing with deionized water and then with […] densities (ODs) of stained adherent bacteria were determined with an enzyme-linked immunosorbent assay (ELISA) plate reader at a 630 nm wavelength. […] Only broth or broth with extracts served as a control to check the sterility and nonspecific binding of media. To compensate for background absorbance, OD readings from sterile medium, extracts, fixative, and dye were averaged and subtracted from all test values. All tests were performed in duplicate.

[5] = tested on: S. aureus ATCC 6538 biofilm; assay: as above; format: cell-based, Staphylococcus aureus; settings: S. aureus ATCC 6538, 37 °C, 48 h
Experimental: as §7

[6] = tested on: P. aeruginosa (isolate); assay: Microdilution with resazurin, antibacterial; format: cell-based, Pseudomonas aeruginosa
Experimental: as §1, §2, §3, §4, §5, §6

[7] = tested on: P. aeruginosa ATCC 27853; assay: Microdilution with resazurin, antibacterial; format: cell-based, Pseudomonas aeruginosa
Experimental: as §1, §2, §3, §4, §5, §6

[8] = tested on: K. pneumoniae (isolate); assay: Microdilution with resazurin, antibacterial; format: cell-based, Klebsiella pneumoniae
Experimental: as §1, §2, §3, §4, §5, §6

[9] = tested on: K. pneumoniae ATCC 70063; assay: Microdilution with resazurin, antibacterial; format: cell-based, Klebsiella pneumoniae
Experimental: as §1, §2, §3, §4, §5, §6

[10] = tested on: B. cereus (isolate); assay: Microdilution with resazurin, antibacterial; format: cell-based, Bacillus cereus
Experimental: as §1, §2, §3, §4, §5, §6

[11] = tested on: P. mirabilis (isolate); assay: Microdilution with resazurin, antibacterial; format: cell-based, Proteus mirabilis
Experimental: as §1, §2, §3, §4, §5, §6

[12] = tested on: P. mirabilis ATCC 12453; assay: Microdilution with resazurin, antibacterial; format: cell-based, Proteus mirabilis
Experimental: as §1, §2, §3, §4, §5, §6

[13] = S. enterica, extracts and usnic acid

Molecule: CN(C)[C@@H]1C(O)=C(C(N)=O)C(=O)[C@@]2(O)C(O)=C3C(=O)c4c(O)cccc4[C@@](C)(O)[C@H]3C[C@@H]12 [TC, tetracycline]
- MBC ([1]; Salmonella enterica): 2 µg/mL (≈ 4.5 µM)
- MBC ([2]; Escherichia coli, ATCC25922, antibiotics, read-out: MBC): 6 µg/mL (≈ 13.5 µM)
- MIC ([2]; Escherichia coli, ATCC25922, antibiotics, read-out: MIC): 4 µg/mL (≈ 9 µM)
- MBC ([3]; Escherichia coli, antibiotics, read-out: MBC): 6 µg/mL (≈ 13.5 µM)
- MIC ([3]; Escherichia coli, antibiotics, read-out: MIC): 2 µg/mL (≈ 4.5 µM)
- BIC90 (biofilm inhibitory concentration, 90% reduction of biofilm coverage) [4]: >1000 µg/mL
- IC50 ([4]; Pseudomonas aeruginosa, read-out: BIC50 (biofilm inhibitory concentration, 50% reduction of biofilm coverage)): > 1000 µg/mL
- BIC90 (biofilm inhibitory concentration, 90% reduction of biofilm coverage) [5]: >1000 µg/mL
- IC50 ([5]; Staphylococcus aureus, ATCC6538, read-out: BIC50 (biofilm inhibitory concentration, 50% reduction of biofilm coverage)): 249 µg/mL (≈ 560 µM)
- MBC ([6]; Pseudomonas aeruginosa, antibiotics, read-out: MBC): > 128 µg/mL
- MIC ([6]; Pseudomonas aeruginosa, antibiotics, read-out: MIC): > 128 µg/mL
- MBC ([7]; Pseudomonas aeruginosa, ATCC27853, antibiotics, read-out: MBC): 32 µg/mL (≈ 72 µM)
- MIC ([7]; Pseudomonas aeruginosa, ATCC27853, antibiotics, read-out: MIC): 4 µg/mL (≈ 9 µM)
- MBC ([8]; Klebsiella pneumoniae, antibiotics, read-out: MBC): 32 µg/mL (≈ 72 µM)
- MIC ([8]; Klebsiella pneumoniae, antibiotics, read-out: MIC): 4 µg/mL (≈ 9 µM)
- MBC ([9]; Klebsiella pneumoniae, ATCC70063, antibiotics, read-out: MBC): 64 µg/mL (≈ 144 µM)
- MIC ([9]; Klebsiella pneumoniae, ATCC70063, antibiotics, read-out: MIC): 4 µg/mL (≈ 9 µM)
- MBC ([10]; Bacillus cereus, antibiotics, read-out: MBC): 0.5 µg/mL (≈ 1.13 µM)
- MIC ([10]; Bacillus cereus, antibiotics, read-out: MIC): 0.25 µg/mL (≈ 0.563 µM)
- MBC ([11]; Proteus mirabilis, antibiotics, read-out: MBC): > 128 µg/mL
- MIC ([11]; Proteus mirabilis, antibiotics, read-out: MIC): > 128 µg/mL
- MBC ([12]; Proteus mirabilis, ATCC12453, antibiotics, read-out: MBC): 4 µg/mL (≈ 9 µM)
- MIC ([12]; Proteus mirabilis, ATCC12453, antibiotics, read-out: MIC): 2 µg/mL (≈ 4.5 µM)

Molecule: usnic acid
- MBC [1, 13]: <10000 µg/mL
- MIC [1, 13]: <10 mg/mL
- MBC ([2]; extracts and usnic acid): <10000 µg/mL
- MIC ([2]; extracts and usnic acid): <10000 µg/mL
- MBC ([3]; extracts and usnic acid): <10000 µg/mL
- MIC ([3]; extracts and usnic acid): <10000 µg/mL
- BIC50 (biofilm inhibitory concentration, 50% reduction of biofilm coverage) [4]: > 10,000 µg/mL
- BIC90 (biofilm inhibitory concentration, 90% reduction of biofilm coverage) [4]: > 10,000 µg/mL
- BIC50 (biofilm inhibitory concentration, 50% reduction of biofilm coverage) ([4]; listed as UA): <10,000 µg/mL
- BIC90 (biofilm inhibitory concentration, 90% reduction of biofilm coverage) ([4]; listed as UA): <10,000 µg/mL
- BIC50 (biofilm inhibitory concentration, 50% reduction of biofilm coverage) [5]: 1750 µg/mL
- BIC90 (biofilm inhibitory concentration, 90% reduction of biofilm coverage) [5]: 5000 µg/mL
- MBC ([6]; extracts and usnic acid): <10000 µg/mL
- MIC ([6]; extracts and usnic acid): 10000 µg/mL
- MBC ([7]; extracts and usnic acid): <10000 µg/mL
- MIC ([7]; extracts and usnic acid): 10000 µg/mL
- MBC ([8]; extracts and usnic acid): <10000 µg/mL
- MIC ([8]; extracts and usnic acid): <10000 µg/mL
- MBC ([9]; extracts and usnic acid): <10000 µg/mL
- MIC ([9]; extracts and usnic acid): <10000 µg/mL
- MBC ([10]; extracts and usnic acid): <80 µg/mL
- MIC ([10]; extracts and usnic acid): <80 µg/mL
- MBC ([11]; extracts and usnic acid): <10000 µg/mL
- MIC ([11]; extracts and usnic acid): <10000 µg/mL
- MBC ([12]; extracts and usnic acid): <10000 µg/mL
- MIC ([12]; extracts and usnic acid): <10000 µg/mL
